The values that follow come from PMC11859905, “Flavonoids as Potential Modulators of Pancreatic Lipase Catalytic Activity” (Pharmaceutics, 2025).

Like-named read-outs stand apart in the source and are kept apart here.

The target in assay [1] is T1, porcine pancreatic lipase (Sus scrofa, UniProt P00591).
T1 sequence (P00591 1-450): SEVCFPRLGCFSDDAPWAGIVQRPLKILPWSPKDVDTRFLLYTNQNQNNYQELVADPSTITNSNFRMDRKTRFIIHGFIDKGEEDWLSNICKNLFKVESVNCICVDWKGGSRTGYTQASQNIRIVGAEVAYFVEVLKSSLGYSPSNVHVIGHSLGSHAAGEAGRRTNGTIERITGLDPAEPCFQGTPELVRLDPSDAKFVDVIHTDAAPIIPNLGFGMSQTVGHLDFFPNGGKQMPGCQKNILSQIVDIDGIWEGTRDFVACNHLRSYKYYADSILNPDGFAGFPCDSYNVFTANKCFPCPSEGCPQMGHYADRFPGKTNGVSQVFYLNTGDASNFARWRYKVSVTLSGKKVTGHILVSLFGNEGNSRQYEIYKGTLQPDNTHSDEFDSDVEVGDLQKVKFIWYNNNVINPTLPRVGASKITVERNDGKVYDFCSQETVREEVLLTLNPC
The assay can be described thus: In vitro assay using porcine pancreatic lipase (4-MUO hydrolysis, fluorometric).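 As to all read-outs here: product 4-methylumbeliferone formation tracked fluorometrically, catalytic rate from RFU slope over the 10–30 min window, compounds checked beforehand for own fluorescence, at least three independent experiments.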 The conditions noted are these: for inhibitory activity against PPL (in words): at the maximum concentration that could be tested; for inhibition at 50 µM / inhibition at 100 µM / inhibition at 25 µM: read-out: PL Inhibition (%) ± SEM, Porcine.

Assay [2] has as its target T1, porcine pancreatic lipase. Description: Inhibition kinetics of porcine pancreatic lipase (nonlinear regression, Solver). Format: biochemical. The arrangement: compare it to the effects of the porcine pancreas (type II, EC 3.1.1.3); from tissue; host or cells: porcine pancreas (type II preparation). The note with it: for Ki / Inhibition Model / Vmax: porcine pancreatic lipase; for Ki / Vmax: ± SEM; for Vmax: in µmol/min.

Assay [3] has as its target T2, human pancreatic lipase (Homo sapiens, UniProt P16233).
T2 construct: PL from the human pancreas (triacylglycerol acyl hydrolase, EC 3.1.1.3); from tissue; host or cells: human pancreas
T2 sequence (P16233 17-465): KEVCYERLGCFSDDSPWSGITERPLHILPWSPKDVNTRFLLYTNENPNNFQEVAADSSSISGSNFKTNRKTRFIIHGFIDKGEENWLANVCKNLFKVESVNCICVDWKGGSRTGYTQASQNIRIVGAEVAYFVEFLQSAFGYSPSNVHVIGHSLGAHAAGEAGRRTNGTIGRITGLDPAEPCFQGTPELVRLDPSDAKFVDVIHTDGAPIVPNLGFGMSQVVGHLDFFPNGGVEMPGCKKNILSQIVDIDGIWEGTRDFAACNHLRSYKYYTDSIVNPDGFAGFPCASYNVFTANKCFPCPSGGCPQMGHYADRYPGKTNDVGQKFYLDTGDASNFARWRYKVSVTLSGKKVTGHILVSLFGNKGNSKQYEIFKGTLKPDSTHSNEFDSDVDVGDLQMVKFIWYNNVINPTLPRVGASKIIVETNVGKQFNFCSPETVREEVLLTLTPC
Description: Inhibition kinetics of human pancreatic lipase (nonlinear regression, Solver). Format: biochemical.

Assay [4] concerns the target T2, human pancreatic lipase. Description: In vitro assay using human pancreatic lipase (4-MUO hydrolysis, fluorometric).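 As to all read-outs here: Read-out is the initial rate of fluorescent 4-MU release as HPL cleaves the 4-MUO substrate, a rate that scales with the amount of enzyme.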 The conditions noted are these: for IC50: human PL 2 U/mL, 4-MUO 0.05 mM, mean ± SEM; for inhibition at 50 µM / inhibition at 100 µM / inhibition at 25 µM: read-out: PL Inhibition (%) ± SEM, Human; for inhibitory activity against HPL (in words): at the maximum concentration that could be tested. Format: biochemical.

The target of assay [5] is T1, porcine pancreatic lipase. The arrangement: compare it to the effects of the porcine pancreas (type II, EC 3.1.1.3); from tissue; host or cells: porcine pancreas (type II preparation). The conditions noted are these: not calculated in this paper; cited from earlier work.
The mark [6] stands for this setting: competitive constant, read-out: Kic.

On to `O=c1c(O)c(-c2cc(O)c(O)c(O)c2)oc2cc(O)cc(O)c12` [Flavonoid 38, Myricetin], for which the IC50 worked out at 16 ± 1 µM in assay [1] and 25 ± 2 µM in assay [4]. Besides, the Ki is 12 ± 0.8 µM in assay [2] (setting [6]) and 58 ± 3 µM in assay [2] (uncompetitive constant, read-out: Kiu). Also, the “Inhibition Model” value in assay [3] (human pancreatic lipase) is on record as “Noncompetitive”.
Turning to `O=c1c(O)c(-c2ccc(O[C@@H]3O[C@H](CO)[C@@H](O)[C@H](O)[C@H]3O)c(O)c2)oc2cc(O)cc(O)c12` [Flavonoid 34, Spiraeoside], in assay [1], the “inhibitory activity against PPL (in words)” value is on record as “did not show significant inhibitory activity” and the inhibition at 50 µM was less than 30%. Further, in assay [4] (at 50 μM), the inhibition at 50 µM was less than 30%. In addition, in assay [4], the “inhibitory activity against HPL (in words)” value is “did not show significant inhibitory activity”.
On to `O=c1c(O)c(-c2ccc(O)c(O)c2)oc2cc(O[C@@H]3O[C@H](CO)[C@@H](O)[C@H](O)[C@H]3O)cc(O)c12` [Flavonoid 33, Quercimeritrin], for which, in assay [1], the “inhibitory activity against PPL (in words)” value is reported as “did not show significant inhibitory activity” and the inhibition at 50 µM is less than 30%. The inhibition at 50 µM in assay [4] (at 50 μM) was less than 30%. Besides, in assay [4], the “inhibitory activity against HPL (in words)” value is given as “did not show significant inhibitory activity”.
As to `Oc1cc(O)c2c(c1)OC(c1cc(O)c(O)c(O)c1)C(O)C2` (single isomer, unassigned; (-)) [Flavonoid 40, (–)-Epigallocatechin], the inhibition at 100 µM in assay [1] and in assay [4] was less than 30% throughout.
On to `O=c1c(-c2ccc(O)cc2)coc2cc(O)cc(O)c12` [Flavonoid 17, Genistein], for which, in assay [1], the “inhibitory activity against PPL (in words)” value is given as “did not show significant inhibitory activity” and the inhibition at 100 µM was less than 30%. Also, in assay [4], the inhibition at 100 µM is less than 30% and the “inhibitory activity against HPL (in words)” value is given as “did not show significant inhibitory activity”.
With `CCCCc1c(-c2ccc(O)c(O)c2)oc2cc(O)cc(O)c2c1=O` [Flavonoid 28], the half-inhibitory concentration (IC50) in assay [1] is 13 ± 1 µM; in assay [4], 42 ± 2 µM.
In turn, `O=c1cc(-c2ccc(O)c(O)c2)oc2cc(O)cc(O)c12` [Flavonoid 16, Luteolin] had a concentration for half-maximal inhibition (IC50) in assay [1] of 32 ± 2 µM. Further, in assay [4] (at 50 μM), the inhibition at 50 µM is 54 ± 2%.
On to `O=c1cc(-c2cccc(O)c2)oc2cc(O)cc(O)c12` [Flavonoid 14], for which the IC50 in assay [1] turned out to be 73 ± 7 µM; in assay [4] it was 54 ± 5 µM.
As for `O=c1cc(-c2ccc(O)c(O)c2)oc2ccccc12` [Flavonoid 4], the inhibition at 100 µM in assay [1] and in assay [4] was less than 30% throughout.
With `O=c1cc(-c2ccccc2)oc2cc(O)cc(O)c12` [Flavonoid 13, Chrysin], the inhibition at 50 µM in assay [1] and in assay [4] (at 50 μM) was less than 30% in each case.
As to `O=c1cc(-c2ccc(O)cc2)oc2cc(O)cc(O)c12` [Flavonoid 15, Apigenin], the IC50 stood at 41 ± 1 µM in assay [1] and 75 ± 2 µM in assay [4].
In the case of `O=c1c(O)c(-c2ccc(O)c(O)c2)oc2cc(O)cc(O)c12` [Flavonoid 27, Quercetin], in assay [2], the “Inhibition Model” value is given as “Competitive” and the Vmax is on record as 354 ± 3. Moreover, in assay [4] (read-out: PL Inhibition (%) ± SEM, Human, at 75 μM), the inhibition at 75 µM was less than 46%.
For the compound `O=c1cc(-c2cc(O)c(O)c(O)c2)oc2cccc(O)c12` [Flavonoid 36], the 50% inhibitory concentration (IC50) in assay [1] came to 20 ± 3 µM; in assay [4] it was 7 ± 1 µM.
As for `O=c1cc(-c2cccc(O)c2)oc2cc(O)ccc12` [Flavonoid 10], the inhibition at 100 µM in assay [1] and in assay [4] was less than 30% in each case.
As for `O=c1c(O)c(-c2ccc(O)c(O)c2)oc2c(O)c(O)ccc12` [Flavonoid 45, Melanoxetin], the inhibition at 25 µM in assay [1] and in assay [4] was less than 30% each time.
As for `O=c1cc(-c2ccccc2)oc2ccccc12` [Flavonoid 1, Flavone], the inhibition at 100 µM in assay [1] and in assay [4] was less than 30% throughout.
In the case of `O=c1c(O)c(-c2ccc(O)cc2)oc2c(O)c(O)cc(O)c12` [Flavonoid 46, Herbacetin], the inhibition at 50 µM in assay [1] is 46 ± 4%; in assay [4] (at 50 μM) it was 39 ± 3%.
For `O=c1cc(-c2ccc(O)cc2)oc2cccc(O)c12` [Flavonoid 7], the inhibition at 25 µM in assay [1] and in assay [4] was less than 30% throughout.
In the case of `O=C(O[C@@H]1Cc2c(O)cc(O)cc2O[C@@H]1c1cc(O)c(O)c(O)c1)c1cc(O)c(O)c(O)c1` [Flavonoid 41, (–)-Epigallocatechin gallate], in assay [1], inhibition was half-maximal at 32 ± 4 µM (IC50). In addition, in assay [2], the “Inhibition Model” value is “Competitive” and the Vmax is listed as 680 ± 7. The Ki in assay [2] (setting [6]) worked out at 21 ± 3 µM. In addition, the inhibition at 100 µM in assay [4] is less than 30%.
`CCCCCCCCCCC[C@@H](C[C@@H]1OC(=O)[C@H]1CCCCCC)OC(=O)[C@H](CC(C)C)NC=O` [Orlistat]: the “type of PL inhibition” value in assay [5] is reported as “irreversible”.
Regarding `O=c1c(O)c(-c2ccc(O)cc2)oc2cc(O)cc(O)c12` [Flavonoid 24, Kaempferol], in assay [1] (read-out: IC50 (μM) ± SEM, Porcine, porcine PL 0.04 mg/mL, 4-MUO 0.05 mM, mean ± SEM), the half-inhibitory concentration (IC50) stood at 79 ± 6 µM. The inhibition at 100 µM in assay [4] was found to be 39 ± 3%.
Turning to `O=c1cc(-c2ccc(O)cc2)oc2ccccc12` [Flavonoid 3], the inhibition at 25 µM in assay [1] and in assay [4] was less than 30% in each case.
As for `O=c1cc(-c2ccc(O)c(O)c2)oc2c(O)c(O)ccc12` [Flavonoid 43], the inhibition at 50 µM in assay [1] and in assay [4] (at 50 μM) was less than 30% in each case.
Turning to `O=c1c(O[C@@H]2O[C@H](CO)[C@@H](O)[C@H](O)[C@H]2O)c(-c2ccc(O)cc2)oc2cc(O)cc(O)c12` [Flavonoid 25, Astragalin], the “inhibitory activity against PPL (in words)” value in assay [1] was “did not show significant inhibitory activity”. Besides, the inhibition at 50 µM in assay [1] is less than 30%; in assay [4] (at 50 μM), 34 ± 1%. In assay [4], the “inhibitory activity against HPL (in words)” value is on record as “did not show significant inhibitory activity”.
On to `CCCCCCCCCCc1c(-c2ccc(O)c(O)c2)oc2cc(O)cc(O)c2c1=O` [Flavonoid 30], for which the IC50 in assay [1] stood at 7.3 ± 0.6 µM; in assay [4] it was 3.2 ± 0.1 µM. The “Inhibition Model” value in assay [2] is given as “Competitive”; in assay [3] (human pancreatic lipase), “mixed-type”. Moreover, the Ki is 1.78 ± 0.04 µM in assay [2] (setting [6]) and 1.3 ± 0.3 µM in assay [3] (human pancreatic lipase, first Kic column of Table 4, ± SEM). For the same compound, the Vmax in assay [2] was found to be 507 ± 4; in assay [3] (human pancreatic lipase, ± SEM), 260 ± 10. In addition, in assay [2] (versus 38, 27 and 41), the “binding affinity to PPL, times higher than the other compounds (from Kic)” value is given as “approximately 10”. Moreover, in assay [3] (versus 38), the “potency against HPL from Kic, times higher than 38 (myricetin)” value was “approximately 60”.
Take `O=c1c(O)c(-c2ccccc2)oc2cc(O)cc(O)c12` [Flavonoid 23, Galangin]: the inhibition at 50 µM in assay [1] was 41 ± 1%; in assay [4] (at 50 μM) it was less than 30%.
On to `O=c1cc(-c2ccc(O)c(O)c2)oc2cccc(O)c12` [Flavonoid 8], for which the inhibition at 50 µM is 46 ± 2% in assay [1] and less than 30% in assay [4].

Usually IC50 stands for the concentration needed to halve the response being measured. Broadly, the inhibition is the share of the control response that was lost under treatment.
